Values after ≈ are worked out from the molar mass of the structure shown.
Key:
physchem [1] = conditions: buffer, pH 2
physchem [2] = conditions: buffer, pH 7
in vitro [3] = conditions: human, microsomes
in vitro [4] = conditions: rat, microsomes
in vivo [5] = conditions: rat, po, 200 mg/kg
in vivo [6] = conditions: rat, po, 50 mg/kg
in vivo [7] = conditions: rat, po, 200 mg/kg; remark: listed apart in the source
in vivo [8] = conditions: rat, po, 50 mg/kg; remark: listed apart in the source
in vivo [9] = conditions: rat, po, 200 mg/kg; remark: listed apart in the source
in vivo [10] = conditions: rat, po, 50 mg/kg; remark: listed apart in the source
in vivo [11] = conditions: rat, po, 200 mg/kg; remark: listed apart in the source
in vivo [12] = conditions: rat, po, 200 mg/kg; remark: listed apart in the source
in vivo [13] = conditions: rat, po, 50 mg/kg; remark: listed apart in the source
in vivo [14] = conditions: rat, po, 50 mg/kg; remark: listed apart in the source
in vivo [15] = conditions: rat, po, 50 mg/kg; remark: listed apart in the source
in vivo [16] = conditions: rat, po, 200 mg/kg; remark: listed apart in the source

SMILES | solubility (physchem [1]) [µM] | solubility (physchem [2]) [µM] | half-life (in vitro [3]) [h] | half-life (in vitro [4]) [h] | further results
C[C@H](NS(=O)(=O)c1ccc(-c2sc(NC(=O)CC(C)(C)O)nc2C(=O)N2CCC(F)CC2)c(Cl)c1Cl)C(F)(F)F | 16 (≈ 10.4 µg/mL) | 15 (≈ 9.74 µg/mL) | > 3 | 2.45 | –
C[C@H](NS(=O)(=O)c1ccc(-c2sc(C(=O)NCC(C)(C)O)nc2C(=O)N2CC[C@@H](F)C[C@@H]2C)c(Cl)c1Cl)C(F)(F)F | 41 (≈ 27.2 µg/mL) | 47 (≈ 31.2 µg/mL) | – | – | –
C[C@H](NS(=O)(=O)c1ccc(-c2sc(C(=O)NCC(C)(C)O)nc2C(=O)N2CCC[C@@H]2CF)c(Cl)c1Cl)C(F)(F)F | < 4 | 4 (≈ 2.6 µg/mL) | – | – | –
C[C@H](NS(=O)(=O)c1ccc(-c2sc(C(=O)NCC(C)(C)O)nc2C(=O)N2CCC(F)CC2)c(Cl)c1Cl)C(F)(F)F | 114 (≈ 74 µg/mL) | 116 (≈ 75.3 µg/mL) | > 3 | > 3 | Cmax at 14 day (in vivo [5]): 1280 ng/mL; AUC (in vivo [6]): 31500 ng·h/mL; AUC (in vivo [7]): 6000 ng·h/mL; Cmax at 14 day (in vivo [8]): 417 ng/mL; Cmax (in vivo [9]): 49400 ng/mL; Cmax (in vivo [10]): 11200 ng/mL; Cmax at 4 day (in vivo [11]): 1900 ng/mL; AUC (in vivo [12]): 5020 ng·h/mL; AUC (in vivo [13]): 1110 ng·h/mL; Cmax at 4 day (in vivo [14]): 252 ng/mL; AUC (in vivo [15]): 870 ng·h/mL; AUC (in vivo [16]): 282000 ng·h/mL
CC[C@H](NS(=O)(=O)c1ccc(-c2sc(C(=O)NCC(C)(C)O)nc2C(=O)N(CC)CC)c(Cl)c1Cl)C(F)(F)F | 32 (≈ 20.3 µg/mL) | 44 (≈ 27.9 µg/mL) | > 3 | > 3 | –
CC(C)(O)CNC(=O)c1nc(CC2CCCCC2)c(-c2ccc(S(=O)(=O)NC(C)(C)C)c3ccccc23)s1 | – | < 1 | 1.25 | 0.783 | –
C[C@H](NS(=O)(=O)c1ccc(-c2sc(C(=O)NCC(C)(C)O)nc2C(=O)N2CCCC[C@@H]2C)c(Cl)c1Cl)C(F)(F)F | 19 (≈ 12.3 µg/mL) | 21 (≈ 13.6 µg/mL) | > 3 | 0.817 | –
C[C@H](NS(=O)(=O)c1ccc(-c2sc(C(=O)NCC(C)(C)O)nc2C(=O)N2CC3CC3C2)c(Cl)c1Cl)C(F)(F)F (some centres undefined) | 7 (≈ 4.41 µg/mL) | 8.7 (≈ 5.48 µg/mL) | – | – | –
CC(C)(O)CNC(=O)c1nc(C(=O)N2CCCCC2)c(-c2ccc(S(=O)(=O)NC(C)(C)C)c3ccccc23)s1 | – | 1.1 (≈ 0.63 µg/mL) | 1.35 | 0.2 | –
C[C@H](NS(=O)(=O)c1ccc(-c2sc(C(=O)NCC(C)(C)O)nc2C(=O)N2CC[C@H](F)C[C@@H]2C)c(Cl)c1Cl)C(F)(F)F | 40 (≈ 26.5 µg/mL) | 54 (≈ 35.8 µg/mL) | > 3 | 1.13 | –
